Assay results: patent US8859580B2 (Boehringer Ingelheim International GmbH, priority 2007, dated 2014)

Biological target: T1, 11β-HSD1 (Homo sapiens, UniProt P28845)
T1 construct: detecting cortisol generated from cortisterone by human liver microsomes; from tissue; host or cells: human liver microsomes
Assay: In vitro inhibition of 11β-HSD1, HTRF detection of cortisol generated from cortisone by human liver microsomes
Type: biochemical
Settings: 11β-HSD IC50 (nM), 1 hour at 37° C., pH 6.0, NADPH 200 μM, cortisone 80 nM, inhibition relative to carbenoxolone signal
How it was run: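 Inhibition expressed against the carbenoxolone signal and fitted to IC50 curves. Readout: HTRF competition between microsomal cortisol and XL665-labelled cortisol for Eu-cryptate anti-cortisol antibody (typically 2 h), with emission ratio 665/615 calibrated to cortisol concentration.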

T1 sequence (P28845 whole entry): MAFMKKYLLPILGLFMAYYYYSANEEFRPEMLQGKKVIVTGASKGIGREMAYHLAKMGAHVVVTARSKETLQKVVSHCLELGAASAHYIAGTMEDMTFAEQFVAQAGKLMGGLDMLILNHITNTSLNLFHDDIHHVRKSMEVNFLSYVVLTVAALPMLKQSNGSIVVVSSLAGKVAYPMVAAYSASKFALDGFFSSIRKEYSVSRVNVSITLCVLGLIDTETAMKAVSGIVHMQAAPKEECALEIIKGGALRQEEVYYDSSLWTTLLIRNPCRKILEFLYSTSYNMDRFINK

Row | SMILES | IC50
1 | CN(Cc1ccccc1)C(=O)c1ccc(C(=O)N2CC[C@@]3(C)c4cccc(O)c4C[C@@H]2C3(C)C)cc1 [Example 170, N-Benzyl-4-[(2R,6S)-10-hydroxy-6,11,11-trimethyl-1,2,5,6-tetrahydro-4H-2,6-methano-benzo[d]azocine-3-carbonyl]-N-methyl-benzamide] | 626 nM
2 | CNc1ccc(C(=O)N2CC[C@@]3(C)c4cccc(O)c4C[C@@H]2C3(C)C)cc1 [Example 48, [(2R,6S)-10-Hydroxy-6,11,11-trimethyl-1,2,5,6-tetrahydro-4H-2,6-methano-benzo[d]azocin-3-yl]-(4-methylamino-phenyl)-methanone] | 364 nM
3 | CN(C)S(=O)(=O)c1ccc2c(c1)[C@]1(C)CCN(C(=O)c3ccc4nc[nH]c4c3)[C@H](C2)C1(C)C [Example 201, (2R,6S)-3-(3H-Benzoimidazole-5-carbonyl)-6,11,11-trimethyl-1,2,3,4,5,6-hexahydro-2,6-methano-benzo[d]azocine-8-sulfonic acid dimethylamide] | 53 nM
4 | Cc1ccc(-c2ccc3c(c2)[C@]2(C)CCN(C(=O)c4ccc5nc[nH]c5c4)[C@H](C3)[C@H]2C)nn1 [Example 263, (3H-Benzoimidazol-5-yl)-[(2R,6R,11S)-6,11-dimethyl-8-(6-methyl-pyridazin-3-yl)-1,2,5,6-tetrahydro-4H-2,6-methano-benzo[d]azocin-3-yl]-methanone] | 71 nM
5 | CC(=O)Nc1ccc(C(=O)N2CC[C@@]3(C)c4cccc(O)c4C[C@@H]2C3(C)C)cc1 [Example 15, N-{4-[(2R,6S)-10-Hydroxy-6,11,11-trimethyl-1,2,5,6-tetrahydro-4H-2,6-methano-benzo[d]azocine-3-carbonyl]-phenyl}-acetamide] | 354 nM
6 | COc1cccc2[nH]cc(C(=O)N3CC[C@@]4(C)c5cccc(O)c5C[C@@H]3C4(C)C)c12 [Example 195, [(2R,6S)-10-Hydroxy-6,11,11-trimethyl-1,2,5,6-tetrahydro-4H-2,6-methano-benzo[d]azocin-3-yl]-(4-methoxy-1H-indol-3-yl)-methanone] | 2480 nM
7 | Cc1nnc(-c2ccc3c(c2)[C@]2(C)CCN(C(=O)c4ccc5nc[nH]c5c4)[C@H](C3)[C@H]2C)o1 [Example 332, (3H-Benzoimidazol-5-yl)-[(2R,6R,11S)-6,11-dimethyl-8-(5-methyl-[1,3,4]oxadiazol-2-yl)-1,2,5,6-tetrahydro-4H-2,6-methano-benzo[d]azocin-3-yl]-methanone] | 64 nM
8 | CC1(C)[C@H]2Cc3c(O)cccc3[C@]1(C)CCN2C(=O)c1ccc(CNC(=O)c2ccccc2)cc1 [Example 125, N-{4-[(2R,6S)-10-Hydroxy-6,11,11-trimethyl-1,2,5,6-tetrahydro-4H-2,6-methano-benzo[d]azocine-3-carbonyl]-benzyl}-benzamide] | 989 nM
9 | CC1(C)[C@H]2Cc3c(O)cccc3[C@]1(C)CCN2C(=O)c1ccc2c(c1)NCC(=O)N2 [Example 44, 6-[(2R,6S)-10-Hydroxy-6,11,11-trimethyl-1,2,5,6-tetrahydro-4H-2,6-methano-benzo[d]azocine-3-carbonyl]-3,4-dihydro-1H-quinoxalin-2-one] | 200 nM
10 | CC1(C)[C@H]2Cc3c(O)cccc3[C@]1(C)CCN2C(=O)c1ccc(CN2CCCC2=O)cc1 [Example 130, 1 -{4-[(2R,6S)-10-Hydroxy-6,11,11-trimethyl-1,2,5,6-tetrahydro-4H-2,6-methano-benzo[d]azocine-3-carbonyl]-benzyl}-pyrrolidin-2-one] | 1610 nM
11 | CC(C)(C)c1nc2cc3c(cc2o1)C[C@H]1N(C(=O)c2ccc4nc[nH]c4c2)CC[C@]3(C)C1(C)C [Example 312, (3H-Benzoimidazol-5-yl)-[(6R,10S)-2-tert-butyl-5,6,7,8,9,10-hexahydro-10,12,12-trimethyl-6,10-methano-oxazolo[4,5-i][3]benzazocin-7-yl]-methanone] | 103 nM
12 | C[C@@H]1[C@H]2Cc3ccc(C(=O)O)cc3[C@]1(C)CCN2C(=O)c1ccc2nc[nH]c2c1 [Example 151, (2R,6R,11S)-3-(3H-Benzoimidazole-5-carbonyl)-6,11-dimethyl-1,2,3,4,5,6-hexahydro-2,6-methano-benzo[d]azocine-8-carboxylic acid] | 426 nM
13 | C[C@@H]1[C@H]2Cc3ccc(-c4nnco4)cc3[C@]1(C)CCN2C(=O)c1ccc2nc[nH]c2c1 [Example 334, (3H-Benzoimidazol-5-yl)-[(2R,6R,11S)-6,11 dimethyl-8-[1,3,4]oxadiazol-2-yl-1,2,5,6-tetrahydro-4H-2,6-methano-benzo[d]azocin 3-yl]-methanone] | 104 nM
14 | CCn1cc(C(=O)N2CC[C@@]3(C)c4cccc(O)c4C[C@@H]2C3(C)C)c2ccccc21 [Example 222, (1-Ethyl-1H-indol-3-yl)-[(2R,6S)-10-hydroxy-6,11,11-trimethyl-1,2,5,6-tetrahydro-4H-2,6-methano-benzo[d]azocin-3-yl]-methanone] | 124 nM
15 | C[C@@H]1[C@@H]2Cc3ccc(O)cc3[C@@]1(C)CCN2C(=O)c1ccc2nc[nH]c2c1 [Example 246, (3H-Benzoimidazol-5-yl)-[(2S,6S,11S)-8-hydroxy-6,11-dimethyl-1,2,5,6-tetrahydro-4H-2,6-methano-benzo[d]azocin-3-yl)-methanone] | 637 nM
16 | CC1(C)[C@H]2Cc3c(O)cccc3[C@]1(C)CCN2C(=O)c1ccc2c(c1)OCCO2 [Example 20, (2,3-Dihydro-benzo[1,4]dioxin-6-yl)-[(2R,6S)-10-hydroxy-6,11,11-trimethyl-1,2,5,6-tetrahydro-4H-2,6-methano-benzo[d]azocin-3-yl]-methanone] | 254 nM
17 | CC12CCN(C(=O)c3ccc4nc[nH]c4c3)C(Cc3cccc(O)c31)C2(C)C (centres unmarked) [Example 78, (3H-Benzoimidazol-5-yl)-(7-hydroxy-6,11,11-trimethyl-1,2,5,6-tetrahydro-4H-2,6-methano-benzo[d]azocin-3-yl)-methanone] | 67 nM
18 | Cn1cnc2cc3c(cc21)[C@]1(C)CCN(C(=O)c2ccc4nc[nH]c4c2)[C@H](C3)C1(C)C [Example 241, (3H-Benzoimidazol-5-yl)-[(6R,10S)-5,6,7,8,9,10-hexahydro-1,10,12,12-tetramethyl-6,10-methano-imidazo[5,4-i][3]benzazocin-7-yl]-methanone] | 204 nM
19 | C#Cc1cc(C(=O)N2CC[C@@]3(C)c4cccc(O)c4C[C@@H]2C3(C)C)ccc1C(=O)N1CCCC1 [Example 32, [3-Ethynyl-4-(pyrrolidine-1-carbonyl)-phenyl]-[(2R,6S)-10-hydroxy-6,11,11-trimethyl-1,2,5,6-tetrahydro-4H-2,6-methano-benzo[d]azocin-3-yl]-methanone] | 915 nM
20 | Cn1cc(C(=O)N2CC[C@@]3(C)c4cccc(O)c4C[C@@H]2C3(C)C)c2ccccc21 [Example 199, [(2R,6S)-10-Hydroxy-6,11,11-trimethyl-1,2,5,6-tetrahydro-4H-2,6-methano-benzo[d]azocin-3-yl]-(1-methyl-1H-indol-3-yl)-methanone] | 137 nM
21 | CC1(C)[C@H]2Cc3c(O)cccc3[C@]1(C)CCN2C(=O)c1ccc2[nH]ccc2c1 [Example 49, [(2R,6S)-10-Hydroxy-6,11,11-trimethyl-1,2,5,6-tetrahydro-4H-2,6-methano-benzo[d]azocin-3-yl]-(1H-indol-5-yl)-methanone] | 168 nM
22 | CCCNC(=O)c1ccc(C(=O)N2CC[C@@]3(C)c4cccc(O)c4C[C@@H]2C3(C)C)cc1 [Example 171, 4-[(2R,6S)-10-Hydroxy-6,11,11-trimethyl-1,2,5,6-tetrahydro-4H-2,6-methano-benzo[d]azocine-3-carbonyl]-N-propyl-benzamide] | 1650 nM
23 | CC1(C)[C@H]2Cc3c(O)cccc3[C@]1(C)CCN2C(=O)c1ccc(C(=O)NCc2ccccc2)cc1 [Example 137, N-Benzyl-4-[(2R,6S)-10-hydroxy-6,11,11-trimethyl-1,2,5,6-tetrahydro-4H-2,6-methano-benzo[d]azocine-3-carbonyl]-benzamide] | 3620 nM
24 | CC1(C)[C@H]2Cc3ccc(S(C)(=O)=O)cc3[C@]1(C)CCN2C(=O)c1ccc2nc[nH]c2c1 [Example 233, (3H-Benzoimidazol-5-yl)-[(2R,6S)-8-methanesulfonyl-6,11,11-trimethyl-1,2,5,6-tetrahydro-4H-2,6-methano-benzo[d]azocin-3-yl)-methanone] | 144 nM
25 | CC1(C)[C@H]2Cc3c(O)cccc3[C@]1(C)CCN2C(=O)c1n[nH]c2ccccc12 [Example 192, [(2R,6S)-10-Hydroxy-6,11,11-trimethyl-1,2,5,6-tetrahydro-4H-2,6-methano-benzo[d]azocin-3-yl]-(1H-indazol-3-yl)-methanone] | 434 nM
26 | C[C@@H]1[C@@H]2Cc3ccc(O)cc3[C@@]1(C)CCN2C(=O)c1ccc2nc[nH]c2c1 [Example 54, (3H-Benzoimidazol-5-yl)-(8-hydroxy-6,11-dimethyl-1,2,5,6-tetrahydro-4H-2,6-methano-benzo[d]azocin-3-yl)-methanone] | 529 nM
27 | C[C@@H]1[C@H]2Cc3ccc(O)cc3[C@]1(C)CCN2C(=O)c1ccc2nc[nH]c2c1 [Example 52, (3H-Benzoimidazol-5-yl)-[(2R,6R,11S)-8-hydroxy-6,11-dimethyl-1,2,5,6-tetrahydro-4H-2,6-methano-benzo[d]azocin-3-yl]-methanone] | 101 nM
28 | Cc1cc(C(=O)N2CC[C@@]3(C)c4cccc(O)c4C[C@@H]2C3(C)C)ccc1C(=O)N1CCCC1 [Example 35, [(2R,6S)-10-Hydroxy-6,11,11-trimethyl-1,2,5,6-tetrahydro-4H-2,6-methano-benzo[d]azocin-3-yl]-[3-methyl-4-(pyrrolidine-1-carbonyl)-phenyl]-methanone] | 672 nM
29 | CN(C)C(=O)c1cccc(C(=O)N2CC[C@@]3(C)c4cccc(O)c4C[C@@H]2C3(C)C)c1 [Example 38, 3-[(2R,6S)-10-Hydroxy-6,11,11-trimethyl-1,2,5,6-tetrahydro-4H-2,6-methano-benzo[d]azocine-3-carbonyl]-N,N-dimethyl-benzamide] | 1440 nM
